{"source": "patent US10131693B2", "about": "“Bipodal-peptide binder” (GWANGJU INSTITUTE OF SCIENCE AND TECHNOLOGY, priority 2008, dated 2018)", "target": "T1, fibronectin ED-B (Homo sapiens, UniProt P02751)", "T1 construct": "After transformation of pET28b vector carrying fibronectin ED-B into BL21 cells; His-tag (N); made in house; host or cells: E. coli BL21 (pET28b)", "T1 sequence (P02751 1271-1359 limits assumed)": "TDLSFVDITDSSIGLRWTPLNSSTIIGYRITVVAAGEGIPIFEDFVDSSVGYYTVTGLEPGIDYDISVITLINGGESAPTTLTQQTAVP", "assay": "SPR (Biacore) affinity measurement to fibronectin ED-B", "type": "binding", "method": "Bipodal-peptide binder peptides specific to ED-B, VEGF or nAchR which were repetitively found in DNA sequencing were synthesized from Anigen Inc. (Korea). Affinity was measured using BlAcore X instrument (Biacore AB, Uppsala, Sweden). ED-B and nAchR were immobilized on streptavidin (SA) chip (Biacore) by injecting 2,000 RU biotinylated-EDB. VEGF was immobilized on CM5 chip (Biacore) using EDC/NHS. PBS (pH 7.4) was used as a running buffer. […].\n. In addition to tryptophan zipper, GB1m3 and HP7 peptide as a type of other β-hairpin backbones were synthesized to contain N-terminal sequence (HCSSAV) and C-terminal sequence (IIRLEQ) of peptide 2 which is specifically bound to ED-B (Anigen, Korea). In other words, the sequence of bipodal-peptide binder in tryptophan zipper is […] (SEQ ID NO:21), and in GB1m3and HP7 are […] (SEQ ID NO:63) and […] (SEQ ID NO:64), respectively. Affinity of each peptide was measured using BIAcore X (Biacore AB, Uppsala, Sweden). […]\nA leucine zipper motif as a structure stabilizing region instead of β-hairpin structure was synthesized to contain N-terminal sequence (HCSSAV) and C-terminal sequence (IIRLEQ) of peptide 2 which is specifically bound to ED-B, producing two peptides, […] […] Both peptides were formed as dimer, and their affinities were measured using BlAcore X (Biacore AB, Uppsala, Sweden). […]", "note": "Residues, ends and D or L forms follow the SMILES beside them.", "data": [{"smiles": "CC[C@H](C)[C@H](NC(=O)CNC(=O)[C@H](CCCCN)NC(=O)[C@H](Cc1c[nH]c2ccccc12)NC(=O)[C@@H](NC(=O)[C@H](Cc1c[nH]c2ccccc12)NC(=O)[C@H](CCCCN)NC(=O)CNC(=O)[C@H](CC(N)=O)NC(=O)[C@H](CCC(=O)O)NC(=O)[C@H](Cc1c[nH]c2ccccc12)NC(=O)[C@@H](NC(=O)[C@H](Cc1c[nH]c2ccccc12)NC(=O)[C@H](CO)NC(=O)CNC(=O)[C@@H](NC(=O)[C@H](C)NC(=O)[C@H](CO)NC(=O)[C@H](CO)NC(=O)[C@H](CS)NC(=O)[C@@H](N)Cc1c[nH]cn1)C(C)C)[C@@H](C)O)[C@@H](C)O)C(=O)N[C@H](C(=O)N[C@@H](CCCNC(=N)N)C(=O)N[C@@H](CC(C)C)C(=O)N[C@@H](CCC(=O)O)C(=O)N[C@@H](CCC(N)=O)C(=O)O)[C@@H](C)CC", "note": "[Peptide 2 (fibronectin ED-B)] (H-HCSSAVGSWTWENGKWTWKGIIRLEQ-OH; N-terminus and C-terminus assumed)", "values": [{"measurement": "Kd", "result": 43, "unit": "nM"}]}]}
